Source: ChEMBL document CHEMBL5500363, “Discovery of novel ocotillol derivatives modulating glucocorticoid receptor/NF-κB signaling for the treatment of sepsis” (Eur J Med Chem, 2024)
Active and inactive are the calls of the source.

Tests used:
Mus musculus [1] = test: Anti-septic activity in LPS-induced sepsis BALB/c mouse assessed as reduction in lung tissue damage at 7.5 to 30 mg/kg administered via gavage for 3 days followed by LPS treatment for 6 hrs by H and E staining based analysis; format: functional, organism-based; conditions: dose 7.5-30 mg/kg, time 78.0 hrs
[2] = molecular target: T1, Glucocorticoid receptor (Mus musculus) (UniProt P06537); test: Stabilization of glucocorticoid receptor in mouse RAW264.7 cells assessed as blockade of CHX-induced protein degradation at 20 uM incubated for 24 hrs by Western blot analysis; format: cell-based
T1 sequence (whole entry): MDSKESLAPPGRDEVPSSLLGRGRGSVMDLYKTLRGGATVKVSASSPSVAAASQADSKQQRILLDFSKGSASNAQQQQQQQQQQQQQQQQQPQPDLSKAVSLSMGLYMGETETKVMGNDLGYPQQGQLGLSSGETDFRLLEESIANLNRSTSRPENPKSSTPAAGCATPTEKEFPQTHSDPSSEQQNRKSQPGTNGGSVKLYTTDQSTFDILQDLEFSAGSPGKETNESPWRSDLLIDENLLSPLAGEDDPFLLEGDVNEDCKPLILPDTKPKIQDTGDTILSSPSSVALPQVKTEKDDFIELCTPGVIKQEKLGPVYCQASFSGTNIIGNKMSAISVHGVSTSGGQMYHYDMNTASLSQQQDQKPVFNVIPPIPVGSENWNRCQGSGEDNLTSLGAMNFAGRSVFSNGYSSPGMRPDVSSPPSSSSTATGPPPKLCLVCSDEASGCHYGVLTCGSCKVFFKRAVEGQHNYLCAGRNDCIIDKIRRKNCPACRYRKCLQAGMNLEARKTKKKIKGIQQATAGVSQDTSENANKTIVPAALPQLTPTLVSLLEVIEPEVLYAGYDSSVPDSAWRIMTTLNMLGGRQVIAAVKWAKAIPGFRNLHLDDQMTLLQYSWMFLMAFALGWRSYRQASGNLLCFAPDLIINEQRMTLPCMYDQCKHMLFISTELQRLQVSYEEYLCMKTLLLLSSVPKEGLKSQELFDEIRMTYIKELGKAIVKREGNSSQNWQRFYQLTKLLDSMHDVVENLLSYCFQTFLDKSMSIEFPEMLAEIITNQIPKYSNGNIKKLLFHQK

RAW264.7 [3] = test: Anti-inflammatory activity in LPS-treated mouse RAW264.7 cells assessed as reversal of nuclear translocation of p65 at 20 uM pretreated for 2 hrs followed by LPS stimulation for 24 hrs by immunofluorescence analysis; format: functional, cell-based; conditions: time 26.0 hrs
Mus musculus [4] = test: Anti-septic activity in LPS-induced sepsis BALB/c mouse assessed as increase in survival rate at 7.5 to 30 mg/kg administered via gavage for 3 days followed by LPS treatment for 6 hrs; format: functional, organism-based; conditions: dose 7.5-30 mg/kg, time 78.0 hrs
Mus musculus [5] = test: Anti-septic activity in LPS-induced sepsis BALB/c mouse assessed as reduction in serum ALT level at 30 mg/kg administered via gavage for 3 days followed by LPS treatment for 6 hrs; format: functional, organism-based; conditions: time 78.0 hrs
Mus musculus [6] = test: Downregulation of I-kappa-B-alpha phosphorylation in liver of LPS-induced sepsis BALB/c mouse model at 7.5 to 30 mg/kg administered via gavage for 3 days followed by LPS treatment for 6 hrs by Western blot analysis; format: functional, organism-based; conditions: dose 7.5-30 mg/kg, time 78.0 hrs
RAW264.7 [7] = test: Inhibition of LPS-induced NO production in mouse RAW264.7 cells at 10 uM pretreated for 2 hrs followed by LPS stimulation for 24 hrs by Griess assay relative to control; format: functional; conditions: time 26 hrs
RAW264.7 [8] = test: Upregulation of glucocorticoid receptor expression in LPS-treated mouse RAW264.7 cells pretreated for 2 hrs followed by LPS stimulation for 24 hrs by Western blot analysis; format: functional, cell-based; conditions: time 26.0 hrs
Mus musculus [9] = test: Anti-septic activity in LPS-induced sepsis BALB/c mouse assessed as reduction in serum TNF-alpha level at 7.5 to 30 mg/kg administered via gavage for 3 days followed by LPS treatment for 6 hrs by ELISA; format: functional, organism-based; conditions: dose 7.5-30 mg/kg, time 78.0 hrs
Mus musculus [10] = test: Anti-septic activity in LPS-induced sepsis BALB/c mouse assessed as reduction in hepatic hemorrhage at 7.5 to 30 mg/kg administered via gavage for 3 days followed by LPS treatment for 6 hrs by H and E staining based analysis; format: functional, organism-based; conditions: dose 7.5-30 mg/kg, time 78.0 hrs

CC(C)(C)OC(=O)CCC(=O)Nc1nc2c(s1)C[C@]1(C)[C@H]3C[C@@H](O)[C@@H]4C([C@]5(C)CC[C@@H](C(C)(C)O)O5)CC[C@@]4(C)[C@]3(C)CC[C@H]1C2(C)C (stereo not given in full)
active: Activity (Mus musculus [1]) | Activity [2] | Activity (RAW264.7 [3]) | Activity (Mus musculus [4]) | Activity (Mus musculus [5]) | Activity (Mus musculus [6]) | Activity (RAW264.7 [8]) | Activity (Mus musculus [9]) | Activity (Mus musculus [10])
52.6%: inhibition at 10 µM (RAW264.7 [7])
